The record followed here is patent US11851445B2, “Compounds and uses thereof” (Foghorn Therapeutics Inc., priority 2020, dated 2023).

Data set [1] concerns non-synovial control cancer cell lines (RD, HCT116, and Calu6). Put plainly: Growth of non-synovial control cancer cell lines, crystal violet, day 14 (Example 3). The format is cell-based. Conditions: FIG. 8. As to the method:
(§1) Procedure: Cells were seeded into 6-well or 12-well plates and were treated daily with a BRD9 degrader (Compound 1), a bromo-domain BRD9 binder (Compound 2), E3 ligase binder (lenalidomide), DMSO, or staurosporin (positive control for cell killing), at indicated concentrations. The number of cells was optimized for each cell line. Growth media was refreshed every 5 days. By day 14, medium was removed, cells were washed with PBS, and stained using 500 μL of 0.005% (w/v) crystal violet solution in 25% (v/v) methanol for at least 1 hour at room temperature. Subsequently plates were scanned on an Odyssey CLx Imaging system.

Data set [2] concerns synovial sarcoma cell lines (SYO1, Yamato, HS-SY-II, and ASKA). The experiment in a line: Growth of synovial sarcoma cell lines (Example 2: confluency, crystal violet, colonies). Conditions: FIGS. 4, 5, 6. It counts as cell-based. As to the method:
(§2) Cells were treated with DMSO or the BRD9 degrader, Compound 1, at indicated concentrations, and proliferation was monitored from day 7 to day 14 by measuring confluency over time using an IncuCyte live cell analysis system (FIG. 4). Growth medium and compounds were refreshed every 3-4 days.
(§3) Cells were seeded into 12-well plates and treated with DMSO, 1 μM BRD9 inhibitor, Compound 2 (also known as BI-7273, see Martin et al, J Med Chem. 59(10):4462-4475 (2016); see structure of compound 2 below), or 1 μM BRD9 degrader, Compound 1.
(§4) The number of cells was optimized for each cell line. Growth medium and compounds were refreshed every 3-5 days. SYO1, Yamato, A549, 293T and HS-SY-II cells were fixed and stained at day 11. ASKA cells were fixed and stained at day 23. Staining was done by incubation with crystal violet solution (0.5 g Crystal Violet, 27 ml 37% Formaldehyde, 100 mL 10×PBS, 10 mL Methanol, 863 dH20 to 1 L) for 30 min followed by 3× washes with water and drying the plates for at least 24 h at room temperature. Subsequently plates were scanned on an Odyssey CLx Imaging system (FIG. 5).
(§5) Cells were seeded into 96-well ultra-low cluster plate (Costar, #7007) in 200 μL complete media and treated at day 2 with DMSO, Staurosporin, or BRD9 degrader, Compound 1, at indicated doses (FIG. 2C). Media and compounds were changed every 5 d and cell colonies were imaged at day 14.

The subject of data set [3] is synovial sarcoma cell lines (SYO1, HS-SY-II, and ASKA). Put plainly: Growth of synovial sarcoma cell lines, crystal violet, day 14 (Example 3). It counts as cell-based. Conditions: SYO1, HS-SY-II, ASKA; day 14; FIG. 7. As to the method:
as §1

In data set [4] the test system is non-synovial control cancer cell lines (293T, A549, G401). Put plainly: Growth of non-synovial control cancer cell lines (Example 2). It counts as cell-based. Conditions: FIGS. 4, 5, 6. As to the method:
as §2, §3, §4, §5

In data set [5] the target is T1, BRD9 (Homo sapiens, UniProt Q9H8M2).
T1 sequence (Q9H8M2 1-597): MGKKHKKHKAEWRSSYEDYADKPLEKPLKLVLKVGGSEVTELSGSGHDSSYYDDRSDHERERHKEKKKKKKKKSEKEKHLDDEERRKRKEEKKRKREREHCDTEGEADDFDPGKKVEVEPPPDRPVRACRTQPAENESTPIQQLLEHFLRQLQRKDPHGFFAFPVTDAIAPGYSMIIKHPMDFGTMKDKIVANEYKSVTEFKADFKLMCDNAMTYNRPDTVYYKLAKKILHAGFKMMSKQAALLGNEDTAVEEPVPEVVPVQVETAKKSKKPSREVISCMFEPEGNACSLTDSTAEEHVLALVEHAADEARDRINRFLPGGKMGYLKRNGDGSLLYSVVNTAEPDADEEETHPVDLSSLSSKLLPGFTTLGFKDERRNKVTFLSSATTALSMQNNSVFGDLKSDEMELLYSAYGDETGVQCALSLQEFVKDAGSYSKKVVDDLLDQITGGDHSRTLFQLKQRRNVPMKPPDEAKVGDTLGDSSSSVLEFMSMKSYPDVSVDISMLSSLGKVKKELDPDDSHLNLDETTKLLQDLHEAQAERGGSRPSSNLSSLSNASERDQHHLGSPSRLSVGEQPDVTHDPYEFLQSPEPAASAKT
The experiment in a line: BRD9 degradation in ASKA cells, western blot dose response. The format is cell-based. More on the design: degradation endogenous BRD9 protein in two synovial sarcoma cell lines; endogenous in cells; host or cells: ASKA synovial sarcoma cells. Conditions: for DC50: read-out: Fitted DC50. As to the method:
Method. […] Cells were then harvested, washed with cold PBS, and frozen in cell pellets at −80° C. Lysates were prepared by resuspending thawed pellets in 1×RIPA Lysis and Extraction buffer (Thermo Fisher, Cat #89900) with 1× Halt™ Protease and Phosphatase Inhibitor Cocktail, EDTA-free (Thermo Fisher, Cat #78441) and 1:1000 dilution Pierce™ Universal Nuclease for Cell Lysis 25ku (Thermo Fisher, Cat #88700). Lysates were incubated on ice for 10 minutes and then centrifuged in 4° C. at maximum speed (15,000 rpm) for 10 minutes. Samples were then analyzed for total protein using BCA protein quantification assay and diluted to 1 μg/μL with lysis buffer and 1× NuPAGE™ LDS Sample Buffer (4×) (Thermo Fisher, Cat #NP0007) and 1×DTT from 30× stock (Cell Signaling Technologies, Cat #14265S). Samples with 20-25 ug of total protein were loaded into 4-12% Bis-Tris Mini-Gel with 1×MES Running buffer and run at 150V for 45 minutes. Gels were transferred using Trans-Blot® Turbo™ Transfer System (semi-dry) at 25V for 10 minutes (High MW setting) on nitrocellulose blots. Blots were blocked in 5% milk in TBST for 1 hour and probed with BRD9 antibody (Bethyl Labs, Cat #A303-781A, 1:750 for SYO1, and Cell Signaling Technologies, Cat #71232S for ASKA) and beta-Actin antibody (Cell Signaling Technologies, Cat #3700, 1:2000) overnight at 4° C. The next day, blots were washed in TBST 3× and probed with 1:5000 IRDye® 680LT Goat anti-Rabbit IgG Secondary Antibody (LiCOR, Cat #926-68021) and 1:10000 IRDye® 800CW Goat anti-Mouse IgG Secondary Antibody (LiCOR, Cat #926-32210) in LiCOR Odyssey® Blocking Buffer (TBS) for 1 hour at room temperature. Blots were washed in TBST 3× and scanned at […] wavelength using LiCOR Odyssey® CLx Imaging System. Western blot signal was quantified using same analyses program included in the same machine. BRD9 signal was quantified by normalizing to beta-actin signal and all samples were normalized to DMSO, set as 100% signal.
A general note: In western blotting, separated proteins are transferred to a membrane and probed.

For data set [6], the target named is T1, BRD9. Put plainly: BRD9 degradation in SYO-1 cells, western blot dose response. It counts as cell-based. The arrangement: degradation endogenous BRD9 protein in two synovial sarcoma cell lines; endogenous in cells; host or cells: SYO1 (SYO-1) synovial sarcoma cells. To be noted: for DC50: read-out: Fitted DC50. As to the method: Method. Synoial sarcoma cells were plated in 6-well plate at 500-100 k cells/well and treated with serial concentrations of BRD9 degrader (10 nM top concentration, diluted 1:3) the next day for two time points at 37° C. Cells were then harvested, washed with cold PBS, and frozen in cell pellets at −80° C. Lysates were prepared by resuspending thawed pellets in 1×RIPA Lysis and Extraction buffer (Thermo Fisher, Cat #89900) with 1× Halt™ Protease and Phosphatase Inhibitor Cocktail, EDTA-free (Thermo Fisher, Cat #78441) and 1:1000 dilution Pierce™ Universal Nuclease for Cell Lysis 25ku (Thermo Fisher, Cat #88700). Lysates were incubated on ice for 10 minutes and then centrifuged in 4° C. at maximum speed (15,000 rpm) for 10 minutes. Samples were then analyzed for total protein using BCA protein quantification assay and diluted to 1 μg/μL with lysis buffer and 1× NuPAGE™ LDS Sample Buffer (4×) (Thermo Fisher, Cat #NP0007) and 1×DTT from 30× stock (Cell Signaling Technologies, Cat #14265S). Samples with 20-25 ug of total protein were loaded into 4-12% Bis-Tris Mini-Gel with 1×MES Running buffer and run at 150V for 45 minutes. Gels were transferred using Trans-Blot® Turbo™ Transfer System (semi-dry) at 25V for 10 minutes (High MW setting) on nitrocellulose blots. Blots were blocked in 5% milk in TBST for 1 hour and probed with BRD9 antibody (Bethyl Labs, Cat #A303-781A, 1:750 for SYO1, and Cell Signaling Technologies, Cat #71232S for ASKA) and beta-Actin antibody (Cell Signaling Technologies, Cat #3700, 1:2000) overnight at 4° C. The next day, blots were washed in TBST 3× and probed with 1:5000 IRDye® 680LT Goat anti-Rabbit IgG Secondary Antibody (LiCOR, Cat #926-68021) and 1:10000 IRDye® 800CW Goat anti-Mouse IgG Secondary Antibody (LiCOR, Cat #926-32210) in LiCOR Odyssey® Blocking Buffer (TBS) for 1 hour at room temperature. Blots were washed in TBST 3× and scanned at […] wavelength using LiCOR Odyssey® CLx Imaging System. Western blot signal was quantified using same analyses program included in the same machine. BRD9 signal was quantified by normalizing to beta-actin signal and all samples were normalized to DMSO, set as 100% signal.

The nature of data set [7]: Interconversion between Enantiomer 1 and Enantiomer 2 in cell medium, chiral LC/MS-MS. The format is physicochemical. Conditions: 0.2 μM, 37° C. As to the method:
For the assessment of interconversion between Enantiomer 1 and Enantiomer 2 in cell medium, the following test was performed. […] At designated time point, aliquot (50 μL) was taken and processed by the addition of 150 μL of acetonitrile containing 0.1% formic acid and internal standard for LC/MS-MS analysis. Peak areas of both Enantiomer 1 and Enantiomer 2 were determined for each sample using a chiral specific analytical method.

The target of data set [8] is T1, BRD9. Put plainly: Pharmacodynamic BRD9 level in SYO-1 xenograft tumors, western blot (Example 14). The format is in vivo. The arrangement: degradation endogenous BRD9 protein in two synovial sarcoma cell lines; endogenous in cells; host or cells: SYO1 (SYO-1) synovial sarcoma cells. To be noted: for pharmacodynamic activity assessed by BRD9 protein level: BALB/c Nude mice, i.v. single dose, FIG. 23; for BRD9 protein degradation in tumor: single dose, tumors up to 72 hours.

Broadly, the DC50 is the concentration at which degradation of the target reaches its halfway point.

As to `COc1cc(-c2cn(C)c(=O)c3cnccc23)cc(OC)c1CN(C)C` [Compound 2, BI-7273], the “growth of the cells” value is recorded as “did not result in inhibition of the growth” in data set [1], “inhibition of the growth of the cells” in data set [2], “inhibition of the growth of the cells” in data set [3] and “does not result in inhibition of the growth” in data set [4].

Turning to `COc1cc(-c2cn(C)c(=O)c3cnc(N4CCC4)cc23)cc(OC)c1CN1CCC(CN2CCC3(CC2)CN(c2ccc4c(c2)C(=O)N(C2CCC(=O)NC2=O)C4)C3)CC1` (single isomer, unassigned; enantiomer 2) [Enantiomer 2], the DC50 is 0.34 nM on BRD9 [5] (0.5 h); 0.012 nM on BRD9 [5] (2 h); 0.092 nM at BRD9 [6] (SYO-1, 1 h); 0.023 nM on BRD9 [6] (SYO-1, 6 h). In addition, the “difference in DC50 between Enantiomer 1 and Enantiomer 2” value was “about 32 fold” on BRD9 [5] (2 h) and “ca. 3 fold” at BRD9 [6] (SYO1, 6 h). Besides, the “BRD9 degradation compared with racemic compound D1” value at BRD9 [6] (SYO-1, 1 or 6 hours, FIGS. 16 and 17) is given as “slightly better than its racemic parent compound D1”. The “% Enantiomer 2” value was 99% in data set [7] (Enantiomer 2 Dosing, 0 h); 95% in data set [7] (Enantiomer 2 Dosing, 0.5 h); 82% in data set [7] (Enantiomer 2 Dosing, 2 h); 63% in data set [7] (Enantiomer 2 Dosing, 6 h). Moreover, the “Mean peak area ratio of Enantiomer 1 over Enantiomer 2 peak area ratio” value is 0.01 in data set [7] (Enantiomer 2 Dosing, 0 h); 0.06 in data set [7] (Enantiomer 2 Dosing, 0.5 h); 0.22 in data set [7] (Enantiomer 2 Dosing, 2 h); 0.60 in data set [7] (Enantiomer 2 Dosing, 6 h). Besides, at BRD9 [8], the “potency compared with racemic compound D1” value was “equipotent to racemic compound D1”. Further, at BRD9 [8], the “pharmacodynamic activity assessed by BRD9 protein level” value was “significant activity”. Moreover, on BRD9 [8], the “BRD9 protein degradation in tumor” value is “degraded BRD9 up to 72 hours after a single dose”.

As to `COc1cc(-c2cn(C)c(=O)c3cnc(N4CCC4)cc23)cc(OC)c1CN1CCC(CN2CCC3(CC2)CN(c2ccc4c(c2)C(=O)N(C2CCC(=O)NC2=O)C4)C3)CC1` (single isomer, unassigned; enantiomer 1) [Enantiomer 1], the DC50 was above 10 nM on BRD9 [5] (0.5 h); 0.38 nM on BRD9 [5] (2 h); 2.8 nM at BRD9 [6] (SYO-1, 1 h); 0.066 nM on BRD9 [6] (SYO-1, 6 h). Moreover, the BRD9 degradation activity entry on BRD9 [5] (30 minutes, up to 10 μM) is listed as “no discernable activity”. Further, the “Mean peak area ratio of Enantiomer 2 over Enantiomer 1 peak area ratio” value in data set [7] (Enantiomer 1 Dosing, 0 h) is listed as 0.0; in data set [7] (Enantiomer 1 Dosing, 0.5 h) it was 0.0; in data set [7] (Enantiomer 1 Dosing, 2 h), 0.13; in data set [7] (Enantiomer 1 Dosing, 6 h), 0.43. Besides, the “% Enantiomer 2” value in data set [7] (Enantiomer 1 Dosing, 2 h) is listed as 12%; in data set [7] (Enantiomer 1 Dosing, 6 h) it was 30%. The “pharmacodynamic activity assessed by BRD9 protein level” value at BRD9 [8] is “inactive”. The “BRD9 protein degradation in tumor” value on BRD9 [8] is recorded as “did not degrade BRD9 protein”.
